Measured values taken from patent US12630804B2, “Blood brain barrier model” (UNIVERSITY OF LANCASHIRE, priority 2016, dated 2026).

Test system: blood brain barrier model
Assay: Permeability of test/known compounds across the blood brain barrier model (TEER and fluorescence in basolateral compartment)
Assay type: in vitro ADME, human
Conditions: added to apical side; TEER and appearance in basolateral compartment, 0.5-6 h; aptamers 100 nM cy5-tagged
Procedure: The blood brain barrier model was exposed to a test/known compounds to determine permeability. The final concentration of compound introduced to the apical well was determined previously using a viability assay, and a concentration chosen that minimised toxicity to the BBB cells (<IC50). Test compounds (short DNA oligonucleotide glioma selective aptamers (100 nM) tagged with cy5 (GL21, scrambled) and lipid nanoparticles (NPs) loaded with 0.33 μg/ml docetaxel or 2.87 μg/ml curcumin tagged with rhodamine123 and transferrin ligand) were prepared in house. When the TEER values for the BBB model peaked, 3.33 μg/ml Evans Blue Dye (EBD) was added to the apical side of the BBB model to determine if the barrier formed was intact. The test and control compounds were introduced to the well and time dependent TEER measurements were taken along with fluorescent measurements of samples at time points between 0.5-6 h from the basolateral side of the well for determination of appearance of the fluorescent tagged compounds. […] The activity was calculated as % fluorescence relative to the stock concentration of the NPs and then plotted
The blood brain barrier model was exposed to a test compound and the permeability of the barrier to said test compound was measured and compared to the permeability of the blood brain barrier model to known compounds. […]

Structure (SMILES): Cc1cc(-c2ccc(N=Nc3ccc4c(S(=O)(=O)[O-])cc(S(=O)(=O)[O-])c(N)c4c3O)c(C)c2)ccc1N=Nc1ccc2c(S(=O)(=O)[O-])cc(S(=O)(=O)[O-])c(N)c2c1O.[Na+].[Na+].[Na+].[Na+] [Evan's blue, Evan's Blue]
- permeation across blood brain barrier model: no permeability
